Measured values published in patent US20100047166A1, “ANTIBODIES AND RELATED MOLECULES THAT BIND TO 58P1D12 PROTEINS” (priority 2008, published 2010).

Test system: LAPC9-AI prostate tumor xenografts
Assay: Established LAPC9-AI prostate tumor xenografts in tibiae, monotherapy and combination with Carboplatin
Type: in vivo, SCID mice
Settings: day 33; MAb 2 mg loading then 1.0 mg i.p. two times a week, 7 doses; Carboplatin 40 mg/kg i.v. days 7, 11, 15, 19, 22, 26; vs control antibody
Procedure: FIG. 16. […] The tumors were allowed to establish for 7 days, at which time the animals were randomized and assigned to four different groups (n=10 in each group) as indicated in the graph. […] Carboplatin (40 mg/kg) was administered to the mice intravenously (i.v.) on days 7, 11, 15, 19, 22 and 26. On day 33 all mice were sacrificed and the tumors were excised and weighed on an electronic balance.
The tumors were allowed to establish for 7 days, at which time the animals were randomized and assigned to four different groups (n=10 in each group). […] Carboplatin (40 mg/kg) was administered to the mice intravenously (i.v.) on days 7, 11, 15, 19, 22 and 26. On day 33 all mice were sacrificed and the tumors were excised and weighed on an electronic balance.

`N.N.O=C([O-])C1(C(=O)[O-])CCC1.[Pt+2]` [Carboplatin, reference compound] was tested. Which “inhibition of tumor growth (tumor weight)” value did it give?
The value was 87%.
